Active and inactive are the calls of the source. The calls are words filed in the database; no cut-off is given here.

Series [1] deals with T1, Epidermal growth factor receptor (Homo sapiens, UniProt P00533). The series is described as follows: Inhibition of EGFR in human PC3 cells assessed as reduction in EGF-stimulated EGFR phosphorylation preincubated for 2 hrs followed by EGF stimulation and measured after 30 mins by Western blot analysis. The class given is cell-based. Conditions: PC-3. (In western blotting, separated proteins are transferred to a membrane and probed.)

In series [2] the target is T1, Epidermal growth factor receptor. The series is described as follows: Inhibition of EGFR in human PC3 cells assessed as reduction in EGF-stimulated EGFR phosphorylation at <= 1 uM preincubated for 2 hrs followed by EGF stimulation and measured after 30 mins by Western blot analysis relative to control. Conditions: PC-3. The class given is cell-based.
Series [3] shares this target. Briefly: Inhibition of EGFR in human 22Rv1 cells assessed as reduction in EGF-stimulated EGFR phosphorylation preincubated for 2 hrs followed by EGF stimulation and measured after 30 mins by Western blot analysis. The format is cell-based. The following applies: CWR22R.
The target is the same in series [4]. The series is described as follows: Inhibition of EGFR in human 22Rv1 cells assessed as reduction in EGF-stimulated EGFR phosphorylation at <= 1 uM preincubated for 2 hrs followed by EGF stimulation and measured after 30 mins by Western blot analysis relative to control. The class given is cell-based. The following applies: CWR22R.
The target is the same in series [5]. Briefly: Inhibition of recombinant human N-terminal GST-tagged EGFR (668 to end residues) expressed in baculovirus infected Sf9 insect cells assessed as reduction in […] EGFR phosphorylation […] by TMB peroxidase substrate based assay.
The target is the same in series [6]. The series is described as follows: Inhibition of EGFR in human PC3 cells assessed as reduction in EGF-stimulated ERK phosphorylation at 0.1 to 100 uM preincubated for 2 hrs followed by EGF stimulation and measured after 30 mins by Western blot analysis. The format is cell-based. Conditions: PC-3.
Series [7] shares this target. Briefly: Inhibition of EGFR in human PC3 cells assessed as reduction in EGF-stimulated AKT phosphorylation at 0.1 to 100 uM preincubated for 2 hrs followed by EGF stimulation and measured after 30 mins by Western blot analysis. The format is cell-based. Conditions: PC-3.
Series [8] in a line: Selectivity ratio of IC50 for EGFR (unknown origin) transfected in mouse NIH/3T3 cells to IC50 for EGFR in mouse NIH/3T3 cells. The class given is cell-based.
Series [9] deals with DNA. Briefly: Induction of DNA damage in human PC3 cells measured after 2 to 24 hrs by alkaline commet assay. The format is cell-based. The following applies: PC-3.
The subject of series [10] is DNA. The series is described as follows: Induction of DNA damage in human 22Rv1 cells measured after 2 to 24 hrs by alkaline commet assay. Conditions: CWR22R. The class given is cell-based.
Series [11] has as its system DNA. The series is described as follows: Induction of DNA damage in human PC3 cells at 12.5 uM measured after 2 to 24 hrs by alkaline commet assay relative to busulfan. The following applies: PC-3. The format is cell-based.
In series [12] the test system is DNA. Briefly: Induction of DNA damage in human 22Rv1 cells at 12.5 measured after 2 to 24 hrs by alkaline commet assay relative to busulfan. The class given is cell-based. Conditions: CWR22R.
The subject of series [13] is DNA. The series is described as follows: Induction of DNA damage in human PC3 cells assessed as increase in gammaH2AX phosphorylation up to 20 uM measured after 48 hrs by Western blot analysis. The format is cell-based. Conditions: PC-3.
Series [14] relates to DNA. Briefly: Induction of DNA damage in human 22Rv1 cells assessed as increase in gammaH2AX phosphorylation up to 20 uM measured after 48 hrs by Western blot analysis. The format is cell-based. The following applies: CWR22R.
Series [15] relates to PC-3. The series is described as follows: Inhibition of PARP in human PC3 cells assessed as reduction in auto-PARylation up to 20 uM measured after 48 hrs by Western blot analysis. The class given is cell-based.
For series [16], the system named is CWR22R. Briefly: Inhibition of PARP in human 22Rv1 cells assessed as reduction in auto-PARylation up to 20 uM measured after 48 hrs by Western blot analysis. The format is cell-based.
The species named for a further series is Homo sapiens. Briefly: Selectivity ratio of IC50 for BRCA mutant (unknown origin) expressed in Cricetulus griseus VCA cells to IC50 for BRCA (unknown origin) expressed in Cricetulus griseus VCA cells. The class given is cell-based.
Series [17] relates to CWR22R. The series is described as follows: Growth inhibition of human 22Rv1 cells after 5 days by SRB assay. The class given is functional, cell-based. The following applies: 22Rv1, 120 h. On the technique in general: Sulforhodamine B stains cellular protein and so reports cell mass.
For series [18], the system named is PC-3. Briefly: Growth inhibition of human PC3 cells after 5 days by SRB assay. The class given is functional, cell-based. Conditions: PC-3, 120 h.
The next series has as its system DU-145. Briefly: Growth inhibition of human DU145 cells after 5 days by SRB assay. The class given is functional, cell-based. The following applies: DU-145, 120 h.
The nature of series [19]: Drug uptake in human 22Rv1 cells at 25 uM measured up to 6 hrs by LC-MS/MS analysis. The format is ADME, cell-based. Conditions: cwr22r.
Series [20] is described as follows: Drug uptake in human 22Rv1 cells assessed as drug accumulation in perinuclear region at 10 uM measured after 2 hrs by confocal laser scanning microscopic analysis. Conditions: cwr22r. The class given is ADME, cell-based.
The nature of series [21]: Induction of 2'-Deoxyguanosine depurination at 0.1 mM measured after 24 hrs by LC-MS analysis. Conditions: 100 µM.
The subject of series [22] is PC-3. Briefly: Inhibition of PARP in human PC3 cells assessed as reduction in auto-PARylation at 10 uM measured after 48 hrs by Western blot analysis. The class given is cell-based.
Series [23] concerns CWR22R. Briefly: Inhibition of PARP in human 22Rv1 cells assessed as reduction in auto-PARylation at 10 uM measured after 48 hrs by Western blot analysis. The format is cell-based.

T1 sequence (P00533 whole entry): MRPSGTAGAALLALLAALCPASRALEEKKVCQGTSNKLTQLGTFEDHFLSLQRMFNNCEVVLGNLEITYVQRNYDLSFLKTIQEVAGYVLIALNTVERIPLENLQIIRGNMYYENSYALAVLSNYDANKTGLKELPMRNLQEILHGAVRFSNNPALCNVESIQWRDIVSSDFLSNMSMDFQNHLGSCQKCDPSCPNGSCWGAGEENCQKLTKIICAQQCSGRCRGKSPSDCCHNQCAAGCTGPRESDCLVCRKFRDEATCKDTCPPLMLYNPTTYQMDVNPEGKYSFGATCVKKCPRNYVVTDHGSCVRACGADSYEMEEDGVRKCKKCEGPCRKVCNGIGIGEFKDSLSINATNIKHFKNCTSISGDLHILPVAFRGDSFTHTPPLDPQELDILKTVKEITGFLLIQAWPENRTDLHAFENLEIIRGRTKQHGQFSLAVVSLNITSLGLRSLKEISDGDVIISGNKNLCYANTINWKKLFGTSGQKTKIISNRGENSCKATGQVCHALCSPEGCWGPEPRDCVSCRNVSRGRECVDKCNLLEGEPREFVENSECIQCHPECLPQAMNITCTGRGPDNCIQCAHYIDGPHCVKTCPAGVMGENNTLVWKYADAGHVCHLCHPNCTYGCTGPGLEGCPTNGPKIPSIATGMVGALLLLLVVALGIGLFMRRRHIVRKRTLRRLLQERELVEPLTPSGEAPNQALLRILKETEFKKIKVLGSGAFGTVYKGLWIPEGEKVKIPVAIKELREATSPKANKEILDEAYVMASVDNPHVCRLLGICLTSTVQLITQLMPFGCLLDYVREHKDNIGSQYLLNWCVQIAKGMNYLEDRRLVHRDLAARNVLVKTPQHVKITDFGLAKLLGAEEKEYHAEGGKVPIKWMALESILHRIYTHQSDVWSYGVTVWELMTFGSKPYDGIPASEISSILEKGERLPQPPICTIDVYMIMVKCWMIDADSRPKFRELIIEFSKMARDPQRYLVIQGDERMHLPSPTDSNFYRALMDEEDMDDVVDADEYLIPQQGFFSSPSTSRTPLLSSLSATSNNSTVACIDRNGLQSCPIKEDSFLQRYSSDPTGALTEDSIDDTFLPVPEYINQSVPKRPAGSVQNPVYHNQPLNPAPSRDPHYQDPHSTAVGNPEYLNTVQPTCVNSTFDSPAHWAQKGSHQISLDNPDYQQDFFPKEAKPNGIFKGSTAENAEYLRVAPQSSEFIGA

Take `CN(CCOS(=O)(=O)CCc1cn(CCCC(=O)N2CCN(C(=O)c3cc(Cc4n[nH]c(=O)c5ccccc45)ccc3F)CC2)nn1)c1ccc2ncnc(Nc3cccc(Br)c3)c2c1`: the inhibition (in general, the change of the read-out against control, counted positive when it falls) was “Dose-dependent effect” in series [1], 34 to 45% in series [2], “Dose-dependent effect” in series [3] and 34 to 45% in [4]. In addition, the IC50 (in general, the midpoint of a concentration-inhibition curve) in series [5] is 0.326 µM; with CWR22R [17], 1.9 µM; in the series with PC-3 [18], 3 µM; in the series with DU-145, 3.2 µM. The inhibition result (in series [6]; in series [7]; in the series on PC-3 [15]; with CWR22R [16]) was “Active” throughout. Also, the values for the Ratio IC50 (in series [8]; in the series filed under Homo sapiens) were 7 and 3 to 4, respectively. The Activity entry in the series with DNA [9] and in the series on DNA [10] was “Dose-dependent effect” throughout. Also, the fold change (FC) in the series on DNA [11] and in the series on DNA [12] was 3 to 6 each time. The result in the series on DNA [13] and in the series with DNA [14] was Active. The Drug uptake result in [19] and in series [20] was “Active” throughout. For the same molecule, the Drug metabolism result in series [21] is recorded as “Metabolite_Detected”.
Consider `CS(=O)(=O)OCCCCOS(C)(=O)=O` [BUSULFAN], for which the IC50 in the series on CWR22R [17] is 24.3 µM; with PC-3 [18], 36.2 µM; in the series with DU-145 it was 25.8 µM.
As to `O=C(c1cc(Cc2n[nH]c(=O)c3ccccc23)ccc1F)N1CCN(C(=O)C2CC2)CC1` [OLAPARIB], the inhibition entry in the series on PC-3 [22] and in the series with CWR22R [23] was “Active” throughout. Further, the half-maximal inhibitory concentration (IC50) in the series with CWR22R [17] is 33.8 µM; in the series on PC-3 [18], 20.6 µM; in the series on DU-145, 17.7 µM.
